{"source": "patent US6111145A", "about": "“Cyclopentenone derivative” (Takara Shuzo Company, priority 1997, dated 2000)", "key": {"[1]": {"test_system": "carrageenan-induced pedal edema", "assay": "Carrageenan-induced pedal edema model", "format": "in vivo", "settings": "Lewis rats, oral 1 or 10 mg/kg in olive oil 0.5 hour before carrageenan, paw volume after three hours", "method": "Lewis rats (male; nine weeks age; body weight: about 250 g) were purchased from Seakku-Yoshitomi and the inflammation models such as carrageenan-induced pedal edema model (a model of rheumatoid arthritis) were prepared as follows whereby the tested substances were evaluated.\nThus, 4-tert-butylcyclopentenone ether or 4,5-di-tert-butylcyclopentenone ether in various concentrations by dissolving in olive oil (manufactured by Nacalai Tesque) was orally administered at the dose of 1 mg/10 ml/kg or 10 mg/10 ml/kg to rats which were fasted for 18 hours before initiation of the experiment.\nAfter 0.5 hour from administration of these test drugs, 100 μl/rat of 1% suspension of carrageenan (manufactured by Wako) in a physiologically saline solution (manufactured by Otsuka Pharmaceutical) was injected to right paw to induce pedal edema. After three hours from the carrageenan injection, volume of right paw of the rat was measured by a pedal volume measuring device (manufactured by UGO BASILE). Incidentally, the measured value was expressed by calculating the increasing rate from the right paw volume of each rat measured before the carrageenan administration."}, "[2]": {"design": "species or system mice", "settings": "mouse, in vivo, 300 mg/kg"}, "[3]": {"target": "topoisomerase II (Homo sapiens, UniProt P11388)", "sequence (P11388 whole entry)": "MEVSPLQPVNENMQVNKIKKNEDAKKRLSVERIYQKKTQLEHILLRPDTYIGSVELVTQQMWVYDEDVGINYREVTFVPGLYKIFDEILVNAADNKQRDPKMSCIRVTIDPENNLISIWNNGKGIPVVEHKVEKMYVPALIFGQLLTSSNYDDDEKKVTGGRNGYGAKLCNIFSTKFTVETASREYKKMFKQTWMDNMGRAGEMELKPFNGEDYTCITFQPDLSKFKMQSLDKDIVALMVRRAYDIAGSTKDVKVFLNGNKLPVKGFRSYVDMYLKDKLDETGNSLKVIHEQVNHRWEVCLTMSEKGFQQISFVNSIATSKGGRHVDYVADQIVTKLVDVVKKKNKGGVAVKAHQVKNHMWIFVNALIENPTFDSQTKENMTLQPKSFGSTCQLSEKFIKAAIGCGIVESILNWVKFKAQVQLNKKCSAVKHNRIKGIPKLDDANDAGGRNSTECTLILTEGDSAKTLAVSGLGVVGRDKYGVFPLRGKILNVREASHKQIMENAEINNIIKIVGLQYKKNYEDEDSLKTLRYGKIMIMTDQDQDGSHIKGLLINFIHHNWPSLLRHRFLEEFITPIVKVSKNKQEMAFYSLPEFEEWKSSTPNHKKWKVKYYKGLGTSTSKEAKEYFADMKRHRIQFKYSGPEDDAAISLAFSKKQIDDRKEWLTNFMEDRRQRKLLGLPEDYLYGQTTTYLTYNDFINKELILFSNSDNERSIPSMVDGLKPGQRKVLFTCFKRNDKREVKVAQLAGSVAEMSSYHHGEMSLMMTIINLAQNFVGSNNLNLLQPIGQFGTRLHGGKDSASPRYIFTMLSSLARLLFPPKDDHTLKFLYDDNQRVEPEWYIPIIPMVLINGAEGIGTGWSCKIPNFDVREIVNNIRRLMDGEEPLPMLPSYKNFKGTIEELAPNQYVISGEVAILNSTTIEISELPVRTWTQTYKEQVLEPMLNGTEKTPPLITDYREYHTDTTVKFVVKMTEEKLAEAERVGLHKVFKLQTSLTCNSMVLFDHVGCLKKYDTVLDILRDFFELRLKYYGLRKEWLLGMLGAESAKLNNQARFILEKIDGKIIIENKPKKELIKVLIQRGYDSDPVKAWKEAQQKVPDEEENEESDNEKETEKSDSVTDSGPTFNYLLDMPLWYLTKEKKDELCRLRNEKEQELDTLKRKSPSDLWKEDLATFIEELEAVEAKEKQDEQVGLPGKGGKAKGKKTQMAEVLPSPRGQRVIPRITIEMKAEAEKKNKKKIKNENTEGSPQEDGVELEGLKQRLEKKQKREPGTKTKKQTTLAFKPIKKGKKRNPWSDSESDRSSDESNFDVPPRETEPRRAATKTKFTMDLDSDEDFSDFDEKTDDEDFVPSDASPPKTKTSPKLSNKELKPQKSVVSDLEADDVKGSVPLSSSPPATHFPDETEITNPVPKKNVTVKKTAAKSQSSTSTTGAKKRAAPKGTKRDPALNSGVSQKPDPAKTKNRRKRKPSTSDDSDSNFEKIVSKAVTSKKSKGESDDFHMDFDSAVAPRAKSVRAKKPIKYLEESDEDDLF", "assay": "Topoisomerase II inhibition, pBR322 DNA relaxation by agarose gel electrophoresis", "format": "biochemical", "method": "(1) One μl of 0.25 μg/μl pBR322 DNA (manufactured by Takara Shuzo) was added to a mixture of 2 μl of topoisomerase II (manufactured by TopoGEN, 2 units/μl), 2 μl of a buffer with a ten-fold diluted concentration [0.5M Tris-HCl (pH 8.0), 1.2M KCl, 0.1M MgCl2, 5 mM adenosine triphosphate and 5 mM dithiothreitol], 2 μl of 0.1% bovine serum albumin (manufactured by Takara Shuzo), 11 μl of distilled water and 2 μl of distilled water (a control) or 4,5-di-tert-butylcyclopentenone ether prepared into various concentrations by water and made to react at 37° C. After the reaction for 30 minutes, the reaction was stopped by adding 2 μl aqueous solution of 1% sodium dodecylsulfate, 50% glycerol and 0.02% Bromophenol Blue.\nThe above reaction solution (20 μl) was applied to 1% agarose gel prepared from agarose L03 (manufactured by Takara Shuzo) and TAE buffer [40 mM Tris, 5mM sodium acetate and 1 mM disodium ethylenediaminetetraacetate (EDTA); adjusted to pH 7.8 with acetic acid] and electrophoresis was conducted in the TAE buffer. After the electrophoresis, the gel was dipped in an aqueous solution of 1 μg/ml ethidium bromide and irradiated with ultraviolet ray to observe the electrophoretic pattern of DNA."}, "[4]": {"test_system": "Promyelocytic leukemia cell strain HL-60 (ATCC CCL-240)", "assay": "Growth of HL-60 cells, MTT method with microscopic observation", "format": "cell-based, human", "settings": "HL-60, at the concentration completely suppressing growth", "method": "(1) A 1.22, 2.44, 4.88, 9.77, 19.5, 39.1, 78.1, 156, 313, 625, 1250, 2500, 5000 or 10000 μg/ml solution (10 μl) (in 70% aqueous solution of ethanol) of 4-benzylcyclopentenone ether, 5-benzylcyclopentenone ether or 4,5-dibenzylcyclopentenone ether or a 70% aqueous solution of ethanol as a control (10 μl) was added to each well of a 96-well microtiter plate followed by drying with air. Promyelocytic leukemia cell strain HL-60 (ATCC CCL-240) was suspended in an RPMI 1640 medium containing 10% of fetal calf serum to an extent of 1×10^5 cells/ml, each 100 μl thereof was poured into each well of the above microtiter plate and incubated at 37° C. for 48 hours in the presence of 5% of CO2. Incubation was continued for four hours more after addition of 10 μl of a solution (5 mg/ml) of 3-(4,5-dimethylthiazol-2-yl)-2,5-diphenyltetrazolium bromide (MTT; manufactured by Sigma) in a phosphate-buffered aqueous saline solution and then the state of growth of the cells was observed under a microscope. Further, 100 μl of 2-propanol containing 0.04N HCl was added thereto followed by well stirring and the absorbance at 590 nm was measured.\n(2) Influence of 4-tert-butylcyclopentenone ether, 5-tert-butylcyclopentenone ether or 4,5-di-tert-butylcyclopentenone ether to the growth of HL-60 cells was measured by the same method as in Example 2-(1)."}}, "data": [{"smiles": "CC(C)(C)O[C@@H]1C(=O)C=C[C@H]1OC(C)(C)C", "note": "(relative stereo) [4,5-di-tert-butylcyclopentenone ether]", "values": [{"measurement": "suppressing action to edema induced by carrageenan (increasing rate of pedal edema)", "setting": "[1]", "result": "showed an suppressing action to edema"}, {"measurement": "death after single oral administration", "setting": "[2]", "result": "no dead case was noted"}, {"measurement": "superhelix DNA remaining", "setting": "[3]; 250 μM in the reaction solution", "result": "the superhelix DNA remained to an medium extent"}, {"measurement": "superhelix DNA remaining", "setting": "[3]; 500 μM in the reaction solution", "result": "most of the superhelix DNA remained"}, {"measurement": "superhelix DNA remaining", "setting": "[3]; 1000 μM in the reaction solution", "result": "the superhelix DNA did not decrease at all"}, {"measurement": "concentration in the reaction solution showing topoisomerase suppressing activity", "setting": "[3]; pBR322 DNA, 37° C., 30 minutes", "result": "not less than 250 μM"}]}, {"smiles": "O=C1C=C[C@@H](OCc2ccccc2)[C@@H]1OCc1ccccc1", "note": "(relative stereo) [4,5-dibenzylcyclopentenone ether]", "values": [{"measurement": "formation of apoptic body", "setting": "[4]", "result": "Formation of apoptic body was noted"}]}, {"smiles": "O=C1C=C[C@@H](OCc2ccccc2)[C@@H]1O", "note": "(relative stereo) [4-benzylcyclopentenone ether]", "values": [{"measurement": "formation of apoptic body", "setting": "[4]", "result": "Formation of apoptic body was noted"}]}, {"smiles": "CC(C)(C)O[C@@H]1C=CC(=O)[C@H]1O", "note": "(relative stereo) [4-tert-butylcyclopentenone ether]", "values": [{"measurement": "suppressing action to edema induced by carrageenan (increasing rate of pedal edema)", "setting": "[1]", "result": "showed an suppressing action to edema"}, {"measurement": "death after single oral administration", "setting": "[2]", "result": "no dead case was noted"}]}, {"smiles": "O=C1C=C[C@@H](O)[C@@H]1OCc1ccccc1", "note": "(relative stereo) [5-benzylcyclopentenone ether]", "values": [{"measurement": "formation of apoptic body", "setting": "[4]", "result": "Formation of apoptic body was noted"}]}]}
